The subject of one test is MCF7. Put plainly: MTT in vitro tumor cell inhibition. The class given is cell-based. Conditions: 3 days. The source says: An effective amount of the above compounds and/or the compositions containing the same used as an active ingredient have an effect on inhibiting the tumor cells. The present invention detects the inhibitory effect of the hydroxy-substituted benzophenone compounds on the proliferation of the in vitro cultured human tumor cells by the methylthiazolyl tetrazolium method.
The method is used to detect cell viability. […] Particles can be dissolved by dimethyl sulfoxide (DMSO) isopropyl alcohol or 10% acidified SDS (sodium dodecyl sulfate), and a microplate reader is used to measure the OD value at A570 wavelength, which indirectly reflects the number of live cells. The method is used for detection of the cytokines bioactivity, as well as anti-tumor drugs and tumor radiosensitivity and cytotoxicity test, and has the characteristics of being simple, fast, economical, sensitive and accurate and having good reproducibility and no need to use radionuclides. This method has been widely used in screening preclinical anticancer drugs and detecting the drug sensitivity of fresh tumor cells. The method is as below:
(1) The tumor cell suspension prepared by 0.25% of trypsin digestion and adjusted to a cell concentration of 10^5/ml with RPMI1640 containing 10% fetal calf serum is added to a 96-well plate with 100 μl for each well, cultured 24 hours, and then different dosages of drugs are added with 100 μl/well, for which, the negative control groups, positive control groups and withering wells are set, and 4 parallel wells are set for each group.
(2) They are continually cultured in incubator containing 5% of CO2 at 37° C. for 24 to 48 hours. MTT solution (5 g/L) is added to each well before the termination of the experiment. The OD value at A570 nm is detected by microplate reader. The OD value at A570 of the negative group without the addition of drugs is taken as a control. The cell survival rate and cell inhibition rate of drugs are calculated according to the following formula: Cell survival rate=(OD value of test group/OD value of control group)×100% Cell inhibition rate (%)=(OD value of the control group−OD value of the test group/(OD value of the control group−OD value of the blank group)
The tumor cell lines are cultured in RPMI-1640 medium containing 15% of the newborn bovine serum in a conventional manner, placed in the humidification incubator containing 5% of CO2 for being cultured at 37° C., and are observed for growth by an inverted microscope. A subculture is conducted every about 3-5 days, the cells in logarithmic growth phase are adopted to be digested with 0.25% of trypsin, and the serum-free RPMI-1640 medium is used for culturing the cell suspension; the blood counting plate makes counting, the trypan blue exclusion tests the cell activity, and the cell viability>95% is used for formal tests.
Liquid preparation: the compounds are labeled with the codes respectively, DMSO is used to dissolve each compound, the bacterial filter is used to remove bacteria, and each compound is prepared into 10^−4 g/ml, 10^−5 g/ml, 10^−6 g/ml and preserved at 4° C. for use.
MTT method: a bottle of 4-5 days old cells in the exponential growth phase are adopted to be cultured, and added with an appropriate amount of Trypsin-EDTA solution, so as to enable the adherent cells to fall off, and are prepared with 10 ml of RPMI-1640 medium containing 15% newborn bovine serum into suspensions; after stained with trypan blue, the cell number is counted on the blood counting plate to ensure that the live cells is more than 97%; the cell suspensions are diluted by the complete medium so that each […] of solution contains 5000-400000 cells; the 96-well plate is used with 200 μl of cell suspensions added into each. The 96-well plate is placed at 37° C. in 5% of CO2 containing incubator for 24 hours; the test compounds are diluted at 3 dilutions with 5 wells in parallel for each concentration; the serum-free RPMI1640 is used as the control group. […]

Another test relates to HPV 6/11 Virus. Kind of test: HPV detection via fluorescence quantitative PCR in genital warts tissue homogenate. Details: species or system human papillomavirus. Conditions: for HPV 6/11 virus detection, in words: 24 hours after addition into the tissue homogenate of genital warts; for HPV 6/11 Virus: genital warts tissue homogenate, 37° C., 24 hours, FQ-PCR. The source says:
(§1) The aforesaid compounds and/or compositions containing the same are effective in killing and inhibiting HPV type 6/11 and type 16/18, which can be used for the preparation of drugs for preventing and treating viral infection of HPV, preventing and treating genital warts, flat warts, common warts, vaginitis, cervicitis and cervical erosion, cervical cancer, esophageal cancer and other cancers caused by HPV. The present invention observes the effect of active ingredients and products by the detection of the change in the amount of the HPV virus through the real-time quantitative PCR. Such method has been applied in several publications (Youling C A I, et al., Chinese STD/AIDS, 2002, 8: 2,108; Yuansheng W U, Ruijiang F A N, et al., Practical Application of Integrated Chinese and Western Medicine in Clinics, 2003, 3: 2,1).
(§2) The microemulsion obtained in example 1 is used as a test sample and saline for blank control.
(§3) The standard clinical genital warts specimens from a variety of patients after being cut off are washed with saline for removing bloods, and are cut into pieces under aseptic conditions, added with saline in 3 times of their volumes to be uniformly mixed, grinded into homogenate and placed at −40° C. for use.
(§4) Each test sample drug microemulsion and the saline of 50 μl for each are respectively added with 50 μl the genital warts tissue homogenate, and incubated at 37° C. for 24 hours; tests are performed according to the operation procedure provided by the HPV6, 11 and 16, 18 type FQ-PCR diagnostic kits provided by Da'an Gene Diagnostic Center. 0.2 ml of DNA extracted by the conventional alkaline lysis method is put into the thin-walled reaction tube, and simultaneously added with primers, F-PROBE, DNTP, DNA polymerase, buffers and the like in a certain concentration; ABI PRISM™ 7700 fluorescence quantitative PCR amplifier is used to repeat 40 circulations each with 45 s at 93° C. and 120 s at 55° C. after predegeneration at 93° C. for 2 mins; the quantitative results are automatically analyzed by the computer software to calculate the quantitative results of the initial copy number. The data are shown in Table 2 (completed by Da'an Gene Clinical Test Center).

The next test has as its system HPV16/18. The test is described as above. Conditions: for HPV16/18 virus detection, in words: 24 hours after addition into the tissue homogenate of genital warts; for HPV16/18: genital warts tissue homogenate, 37° C., 24 hours, FQ-PCR. Set-up: species or system human papillomavirus.
Description: as §1, §2, §3, §4

In another test the test system is HSV-II, SAV strain. Kind of test: Inhibition of cytopathic effects of Vero cells caused by herpes virus type II. The class given is cell-based. As to conditions: Human alphaherpesvirus 2; Vero cells, CPE 48 hours, Reed-Muench; read-out: IC50 Against HSV-II. The text has this:
Vero cells (kidney cells of African green monkey) are used as viral hosts to test the inhibition degree of the samples to the cytopathic effects of Vero cells caused by herpes virus type I and type II.
Vero cells (kidney cells of African green monkey) are used as viral hosts to test the inhibition degree of the samples to cytopathic effects of the Vero cell caused by herpes virus type I and type II.
1. Virus strains: HSV-I, VR733 strain, and HSV-II, SAV strain, which both are provided by ATCC.
2. Sample treatment: the sample is dissolved in DMSO at an appropriate concentration before use, and diluted with the culture medium 3 times at a total of 8 dilutions for test.
3. Positive control drug: acyclovir (ACV) produced by the Hubei Ke Yi pharmaceutical factory.
Background: Protection from cytopathic effect is a common read-out in antiviral testing.

Here are results for four compounds from patent US10716769B2 (GUANGZHOU JTREAT BIOSCI. LTD., priority 2015, dated 2020).

≈ marks a conversion by molar mass, not a printed value.

For `O=C(c1cc(O)c(O)cc1O)c1ccc(O)c(O)c1O`, the Inhibitory rate % with MCF7 (MCF7, 10^−4 g/ml) came out at 73.19%. The compound further returned an Inhibitory rate % in the test with MCF7 (MCF7, 10^−5 g/ml) of 35.48%. The “Inhibitory rate, sensitivity class” value in the test on MCF7 (MCF7, 10^−6 g/ml) is “insensitive (<30% means insensitive)”. Further, in the test with HPV 6/11 Virus, the “HPV 6/11 virus detection, in words” value is recorded as “can no longer be detected” and the “HPV 6/11 Virus” value is on record as 0 copy/ml. Moreover, in the test on HPV16/18, the “HPV16/18 virus detection, in words” value was “can no longer be detected” and the HPV16/18 was found to be 0 copy/ml.

In turn, `O=C(c1ccc(O)c(O)c1O)c1ccc(O)c(O)c1O` [2,3,4,2′,3′,4′-hexahydroxybenzophenone] yielded an Inhibitory rate % in the test with MCF7 (MCF7, 10^−4 g/ml) of 76.37%. In addition, in the test with MCF7 (MCF7, 10^−5 g/ml), the Inhibitory rate % was found to be 43.52%. Moreover, in the test with MCF7 (MCF7, 10^−6 g/ml), the “Inhibitory rate, sensitivity class” value is reported as “insensitive (<30% means insensitive)”. For the same compound, the IC50 in the test on HSV-II, SAV strain turned out to be 10.8 µg/mL (≈ 39 µM). Besides, in the test on HPV 6/11 Virus, the “HPV 6/11 virus detection, in words” value is on record as “can no longer be detected” and the “HPV 6/11 Virus” value stood at 0 copy/ml. In addition, in the test on HPV16/18, the “HPV16/18 virus detection, in words” value is given as “can no longer be detected” and the HPV16/18 was determined as 0 copy/ml.

`O=C(c1ccccc1)c1ccc(O)c(O)c1O` [2,3,4-trihydroxybenzophenone] displayed an Inhibitory rate % in the test on MCF7 (MCF7, 10^−4 g/ml) of 78.59%. In the test on MCF7 (MCF7, 10^−5 g/ml), this compound returned an Inhibitory rate % of 38.60%. For the same compound, in the test on MCF7 (MCF7, 10^−6 g/ml), the “Inhibitory rate, sensitivity class” value is given as “insensitive (<30% means insensitive)”. Further, the IC50 in the test on HSV-II, SAV strain stood at 28.7 µg/mL (≈ 125 µM). For the same compound, in the test on HPV 6/11 Virus, the “HPV 6/11 virus detection, in words” value is listed as “can no longer be detected” and the “HPV 6/11 Virus” value worked out at 0 copy/ml. Further, in the test on HPV16/18, the “HPV16/18 virus detection, in words” value was “can no longer be detected” and the HPV16/18 is recorded as 0 copy/ml.

The compound `O=C(c1ccc(O)cc1O)c1ccc(O)cc1O` [2,4,2′,4′-tetrahydroxybenzophenone] yielded an Inhibitory rate % with MCF7 (MCF7, 10^−4 g/ml) of 45.73%. Also, the “Inhibitory rate, sensitivity class” value with MCF7 (MCF7, 10^−5 g/ml) is “insensitive (<30% means insensitive)”. The “Inhibitory rate, sensitivity class” value in the test with MCF7 (MCF7, 10^−6 g/ml) is recorded as “insensitive (<30% means insensitive)”. Moreover, the IC50 in the test with HSV-II, SAV strain was 28.7 µg/mL (≈ 117 µM). Moreover, in the test with HPV 6/11 Virus, the “HPV 6/11 virus detection, in words” value was “can no longer be detected” and the “HPV 6/11 Virus” value was 0 copy/ml. In the test with HPV16/18, the “HPV16/18 virus detection, in words” value is listed as “can no longer be detected” and the HPV16/18 was found to be 0 copy/ml.

The term IC50 denotes the concentration that inhibits the measured activity by half.
